Structures can show the parent of a compound that is named as a salt.
Biological target: PDE10A (Homo sapiens (Human), UniProt Q9Y233)
Assay: Measurement of PDE activity (recombinant PDE, cAMP HTRF)
Type: biochemical
Settings: 20 nM cyclic nucleotide substrate, 60 minutes at 29 C
Experimental: a) Measurement of PDE Activity
The recombinant PDE proteins are used in in vitro enzymatic reaction for measurement of PDE activity. These recombinant proteins, including PDE10A (human, rat and mouse PDE10) and isoforms of PDEs 1, 3, 4, and 5, were purchased from commercial vendor BPS Bioscience. The enzymatic activity of PDEs was determined by cAMP measurement kit from CisBio (IBA) using HTRF technology.
The PDE enzymatic reaction was carried out in assay buffer (20 mM Tris-HCl pH7.5, 10 mM MgCl2, 0.1% bovine serum albumin) containing enzyme and substrate. […] The substrate cyclic nucleotide (cAMP or cGMP) concentration used in the assay was 20 nM for PDE10, and 100 nM for other PDEs. The inhibitory effect of compound was determined by incubating various concentration of inhibitor in the enzymatic assay. […] Next, the compound at varying concentration was mixed with PDE enzyme. The reaction was initiated by addition of cyclic nucleotide substrate, and incubated for 60 minutes at 29 C. The reaction was stopped by addition of lysis buffer from assay kit. The cAMP-d2 and anti-cAMP cryptate in the lysis buffer detected the level of cAMP left from the PDE hydrolysis reaction. […] Thus, IC50 value of inhibitor can be obtained by plotting inhibitor concentration against PDE activity at that concentration.

Sequence of PDE10A (Q9Y233 whole entry, species assumed): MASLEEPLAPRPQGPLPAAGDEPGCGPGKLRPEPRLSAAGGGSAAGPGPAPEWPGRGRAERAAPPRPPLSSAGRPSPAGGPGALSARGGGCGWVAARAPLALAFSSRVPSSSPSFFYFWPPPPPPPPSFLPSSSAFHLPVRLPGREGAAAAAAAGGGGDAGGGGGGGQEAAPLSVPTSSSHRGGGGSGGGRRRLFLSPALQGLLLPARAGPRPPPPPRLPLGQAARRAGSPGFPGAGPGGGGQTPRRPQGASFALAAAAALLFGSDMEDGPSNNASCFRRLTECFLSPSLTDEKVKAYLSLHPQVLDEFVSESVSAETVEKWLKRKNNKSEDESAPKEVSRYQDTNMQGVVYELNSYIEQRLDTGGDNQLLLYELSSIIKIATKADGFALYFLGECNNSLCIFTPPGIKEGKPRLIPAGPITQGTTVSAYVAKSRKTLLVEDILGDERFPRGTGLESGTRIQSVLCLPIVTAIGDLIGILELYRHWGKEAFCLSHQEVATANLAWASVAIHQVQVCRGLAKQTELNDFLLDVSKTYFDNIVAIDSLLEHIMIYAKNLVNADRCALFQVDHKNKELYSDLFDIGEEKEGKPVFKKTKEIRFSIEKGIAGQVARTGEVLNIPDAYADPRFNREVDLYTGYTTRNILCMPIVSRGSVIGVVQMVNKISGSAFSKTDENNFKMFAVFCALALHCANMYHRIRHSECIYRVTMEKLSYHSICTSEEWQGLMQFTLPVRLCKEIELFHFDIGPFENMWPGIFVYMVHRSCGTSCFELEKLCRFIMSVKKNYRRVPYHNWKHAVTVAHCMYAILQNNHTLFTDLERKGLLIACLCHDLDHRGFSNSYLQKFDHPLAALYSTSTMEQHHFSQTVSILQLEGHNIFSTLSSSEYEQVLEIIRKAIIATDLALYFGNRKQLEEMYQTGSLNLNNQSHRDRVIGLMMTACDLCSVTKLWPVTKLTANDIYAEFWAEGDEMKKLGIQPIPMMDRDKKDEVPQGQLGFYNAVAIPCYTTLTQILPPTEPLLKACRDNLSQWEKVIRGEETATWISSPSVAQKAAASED

CCCCNC(=O)c1cn(CCc2ccc3ccccc3n2)c(=O)c2cc(OC)c(OC)cc12 [Example 322, N-Butyl-6,7-dimethoxy-1-oxo-2-[2-(2-quinolyl)ethyl]isoquinoline-4-carboxamide; 2,2,2-trifluoroacetic acid]
IC50: < 100 nM

CCC(CC)n1cc(C(=O)NCc2ccncc2)c2cc(OC)c(OC)cc2c1=O [Example 261, 6,7-Dimethoxy-1-oxo-2-(pentan-3-yl)-N-(pyridin-4-ylmethyl)-1,2-dihydroisoquinoline-4-carboxamide]
IC50: 200 to 500 nM

CCC(CC)n1cc(C(=O)NCc2sccc2C)c2cc(OC)c(OC)cc2c1=O [Example 258, 6,7-Dimethoxy-N-((3-methylthiophen-2-yl)methyl)-1-oxo-2-(pentan-3-yl)-1,2-dihydroisoquinoline-4-carboxamide]
IC50: 100 to 200 nM

CCn1cc(C(=O)NCc2cccc(F)c2)c2cc(OC)c(OC)cc2c1=O [Example 31, 2-Ethyl-6,7-dimethoxy-1-oxo-1,2-dihydro-isoquinoline-4-carboxylic acid 3-fluoro-benzylamide]
IC50: 200 to 500 nM

CCC(CC)n1cc(C(=O)NC2CCc3c(C)cccc32)c2cc(OC)c(OC)cc2c1=O (stereo not shown) [Example 254, 6,7-Dimethoxy-N-(4-methyl-2,3-dihydro-1H-inden-1-yl)-1-oxo-2-(pentan-3-yl)-1,2-dihydroisoquinoline-4-carboxamide]
IC50: < 100 nM

CCn1cc(C(=O)NCc2ccccc2OC)c2cc(OC)c(OC)cc2c1=O [Example 140]
IC50: 200 to 500 nM

CCC(CC)n1cc(C(=O)NC2CCc3sccc32)c2cc(OC)c(OC)cc2c1=O (stereo not shown) [Example 193, 2-(1-Ethyl-propyl)-6,7-dimethoxy-1-oxo-1,2-dihydro-isoquinoline-4-carboxylic acid (5,6-dihydro-4H-cyclopenta[b]thiophen-4-yl)-amide]
IC50: < 100 nM

CCC(CC)n1nc(C(=O)NC2CCc3ncccc32)c2cc(OC)c(OC)cc2c1=O (stereo not shown) [Example 233, 3-(1-Ethyl-propyl)-6,7-dimethoxy-4-oxo-3,4-dihydro-phthalazine-1-carboxylic acid (6,7-dihydro-5H-[1]pyrindin-5-yl)-amide]
IC50: 100 to 200 nM

CCn1cc(C(=O)NC(C)CC(C)C)c2cc(OC)c(OC)cc2c1=O (stereo not shown) [Example 23, 2-Ethyl-6,7-dimethoxy-1-oxo-1,2-dihydro-isoquinoline-4-carboxylic acid (1,3-dimethyl-butyl)-amide]
IC50: 200 to 500 nM

CCC(CC)n1cc(C(=O)NCc2ccn(C)n2)c2cc(OC)c(OC)cc2c1=O [Example 269, 6,7-Dimethoxy-N-((1-methyl-1H-pyrazol-3-yl)methyl)-1-oxo-2-(pentan-3-yl)-1,2-dihydroisoquinoline-4-carboxamide]
IC50: 200 to 500 nM

CCC(CC)n1cc(C(=O)NCc2cc(C)cs2)c2cc(OC)c(OC)cc2c1=O [Example 257, 6,7-Dimethoxy-N-((4-methylthiophen-2-yl)methyl)-1-oxo-2-(pentan-3-yl)-1,2-dihydroisoquinoline-4-carboxamide]
IC50: 100 to 200 nM

CCn1cc(C(=O)NCc2ccccc2F)c2cc(OC)c(OC)cc2c1=O [Example 30, 2-Ethyl-6,7-dimethoxy-1-oxo-1,2-dihydro-isoquinoline-4-carboxylic acid 2-fluoro-benzylamide]
IC50: 200 to 500 nM

CCC(CC)n1cc(C(=O)NCc2ccccc2CN(C)C)c2cc(OC)c(OC)cc2c1=O [Example 187, 2-(1-Ethyl-propyl)-6,7-dimethoxy-1-oxo-1,2-dihydro-isoquinoline-4-carboxylic acid 2-dimethylaminomethyl-benzylamide hydrochloride]
IC50: 200 to 500 nM

CCn1cc(C(=O)NCC2CCCCC2)c2cc(OC)c(OC)cc2c1=O [Example 28, 2-Ethyl-6,7-dimethoxy-1-oxo-1,2-dihydro-isoquinoline-4-carboxylic acid cyclohexylmethyl-amide]
IC50: 200 to 500 nM

CCC(CC)n1cc(C(=O)NCc2ccc(C)s2)c2cc(OC)c(OC)cc2c1=O [Example 237, 6,7-Dimethoxy-N-((5-methylthiophen-2-yl)methyl)-1-oxo-2-(pentan-3-yl)-1,2-dihydroisoquinoline-4-carboxamide]
IC50: 100 to 200 nM

CCn1cc(C(=O)NC(C)c2ccccc2)c2cc(OC)c(OC)cc2c1=O (stereo not shown) [Example 29, 2-Ethyl-6,7-dimethoxy-1-oxo-1,2-dihydro-isoquinoline-4-carboxylic acid (1-phenyl-ethyl)-amide]
IC50: 200 to 500 nM

CCn1cc(C(=O)NC2CCc3cc(Cl)ccc32)c2cc(OC)c(OC)cc2c1=O (stereo not shown) [Example 169, N-(5-Chloro-2,3-dihydro-1H-inden-1-yl)-2-ethyl-6,7-dimethoxy-1-oxo-1,2-dihydroisoquinoline-4-carboxamide]
IC50: 200 to 500 nM

CCn1cc(C(=O)NCc2ccccc2C)c2cc(OC)c(OC)cc2c1=O [Example 154, 2-Ethyl-6,7-dimethoxy-N-(2-methylbenzyl)-1-oxo-1,2-dihydroisoquinoline-4-carboxamide]
IC50: 100 to 200 nM

CCn1cc(C(=O)NCc2cccc(F)c2F)c2cc(OC)c(OC)cc2c1=O [Example 33, 2-Ethyl-6,7-dimethoxy-1-oxo-1,2-dihydro-isoquinoline-4-carboxylic acid 2,3-difluoro-benzylamide]
IC50: 200 to 500 nM

CCC(CC)n1cc(C(=O)NC2CCc3cc(C)ccc32)c2cc(OC)c(OC)cc2c1=O (stereo not shown) [Example 253, 6,7-Dimethoxy-N-(5-methyl-2,3-dihydro-1H-inden-1-yl)-1-oxo-2-(pentan-3-yl)-1,2-dihydroisoquinoline-4-carboxamide]
IC50: < 100 nM

CCn1cc(C(=O)NCc2ccc(F)cc2F)c2cc(OC)c(OC)cc2c1=O [Example 34, 2-Ethyl-6,7-dimethoxy-1-oxo-1,2-dihydro-isoquinoline-4-carboxylic acid 2,4-difluoro-benzylamide]
IC50: 200 to 500 nM

CCn1cc(C(=O)NCc2ccc(C)cc2OC(C)(C)CC)c2cc(OC)c(OC)cc2c1=O [Example 277, N-[[2-(1,1-Dimethylpropoxy)-4-methyl-phenyl]methyl]-2-ethyl-6,7-dimethoxy-1-oxo-isoquinoline-4-carboxamide]
IC50: 200 to 500 nM

CCC(CC)n1cc(C(=O)NCc2ncc(C)o2)c2cc(OC)c(OC)cc2c1=O [Example 259, 6,7-Dimethoxy-N-((5-methyloxazol-2-yl)methyl)-1-oxo-2-(pentan-3-yl)-1,2-dihydroisoquinoline-4-carboxamide]
IC50: 200 to 500 nM

CCn1cc(C(=O)NC2CCc3sccc32)c2cnc(OC)cc2c1=O (stereo not shown) [Example 230, 2-Ethyl-7-methoxy-1-oxo-1,2-dihydro-[2,6]naphthyridine-4-carboxylic acid (5,6-dihydro-4H-cyclopenta[b]thiophen-4-yl)-amide]
IC50: 100 to 200 nM

CCC(CC)n1cc(C(=O)NCc2ccoc2C)c2cc(OC)c(OC)cc2c1=O [Example 268, 6,7-Dimethoxy-N-((2-methylfuran-3-yl)methyl)-1-oxo-2-(pentan-3-yl)-1,2-dihydroisoquinoline-4-carboxamide]
IC50: 200 to 500 nM

CCn1cc(C(=O)NCc2ccccn2)c2cc(OC)c(OC)cc2c1=O [Example 149, 2-Ethyl-6,7-dimethoxy-1-oxo-N-(pyridin-2-ylmethyl)-1,2-dihydroisoquinoline-4-carboxamide]
IC50: 200 to 500 nM

CCC(CC)n1cc(C(=O)N[C@@H]2CCc3ccccc32)c2cc(OC)c(OC)cc2c1=O [Example 191, 2-(1-Ethyl-propyl)-6,7-dimethoxy-1-oxo-1,2-dihydro-isoquinoline-4-carboxylic acid (R)-indan-1-ylamide]
IC50: 200 to 500 nM

CCn1cc(C(=O)NCc2ccc(C)cc2OC2CCOC2)c2cc(OC)c(OC)cc2c1=O (stereo not shown) [Example 303, 2-Ethyl-6,7-dimethoxy-N-(4-methyl-2-(tetrahydrofuran-3-yloxy)benzyl)-1-oxo-1,2-dihydroisoquinoline-4-carboxamide]
IC50: 200 to 500 nM

CCn1nc(C(=O)NC2CCc3ncccc32)c2cc(OC)c(OC)cc2c1=O (stereo not shown) [Example 129, 3-Ethyl-6,7-dimethoxy-4-oxo-3,4-dihydro-phthalazine-1-carboxylic acid (6,7-dihydro-5H-[1]pyrindin-5-yl)-amide]
IC50: < 100 nM

CCn1cc(C(=O)NCc2ccc(C)cc2OC(C)(C)C)c2cc(OC)c(OC)cc2c1=O [Example 276, N-[(2-tert-Butoxy-4-methyl-phenyl)methyl]-2-ethyl-6,7-dimethoxy-1-oxo-isoquinoline-4-carboxamide]
IC50: 200 to 500 nM

CCn1cc(C(=O)NC2CCc3cc(F)ccc32)c2cc(OC)c(OC)cc2c1=O (stereo not shown) [Example 177, 2-Ethyl-N-(5-fluoro-2,3-dihydro-1H-inden-1-yl)-6,7-dimethoxy-1-oxo-1,2-dihydroisoquinoline-4-carboxamide]
IC50: 200 to 500 nM

CCC(CC)n1cc(C(=O)NC2CCc3c(Cl)cccc32)c2cc(OC)c(OC)cc2c1=O (stereo not shown) [Example 265, N-(4-Chloro-2,3-dihydro-1H-inden-1-yl)-6,7-dimethoxy-1-oxo-2-(pentan-3-yl)-1,2-dihydroisoquinoline-4-carboxamide]
IC50: 200 to 500 nM

CCn1cc(C(=O)NCc2ccc(C)cc2OCCOC)c2cc(OC)c(OC)cc2c1=O [Example 293, 2-Ethyl-6,7-dimethoxy-N-[[2-(2-methoxyethoxy)-4-methyl-phenyl]methyl]-1-oxo-isoquinoline-4-carboxamide]
IC50: 200 to 500 nM

CCn1cc(C(=O)NCc2c(F)cccc2F)c2cc(OC)c(OC)cc2c1=O [Example 35, 2-Ethyl-6,7-dimethoxy-1-oxo-1,2-dihydro-isoquinoline-4-carboxylic acid 2,6-difluoro-benzylamide]
IC50: 200 to 500 nM
